Measurements published in patent publication US20060228297A1, “Thorium-227 for use in radiotherapy of soft tissue disease” (priority 2003, published 2006).
Read-outs that look alike come from different tables or passages of the source.

Assays:
[1] = test system: CD20 antigen expressing human lymphoma cell line DAUDI; experiment: Binding of ^227Th labeled antibody to DAUDI human lymphoma cells; details: for Mean cpm bound per cell pellet, Unblocked: 2×10^7 DAUDI cells, two hours at 8° C., mean of a duplicate; for Mean cpm bound per cell pellet, Blocked: cells pre-saturated with 40 μg unlabeled rituximab; for Thorium-227 atoms bound per cell, Blocked: cells pre-saturated with unlabeled rituximab
Method: DAUDI cells were purchased from European Collection of Cell Cultures (ECACC), Salisbury, UK, and grown according to supplier's instructions using culture medium and supplement from Gibco (Paisley, Scotland, UK) and using 500 ml culture flasks (Cell Star, Greiner Bio-One GmbH, Frickenhausen, Germany). DAUDI cells (2×10^7 cells in 0.7 ml PBS) were used to study binding of ^227Th labeled rituximab in vitro. As control of nonspecific binding, DAUDI cells pre-saturated (blocked) with 40 μg unlabeled rituximab for 15 minutes were used. To the test tubes (Polystyrene culture test tubes, 12×75 mm, Elkay, Shrewsbury, Mass., USA) were added ^227Th labeled rituximab corresponding to 1.3, 5.3, or 26 μg/ml respectively. The experiment was performed in duplicate at each concentration level using unblocked and blocked cells. Incubation was performed for two hours at 8° C. After incubation, cell suspensions were counted for radioactivity (Crystal II Multidetector, Packard Instrument Company Inc. Downers Grove, Ill., USA) and the cells washed with 2 ml of 1% BSA (Albumin, Bovine Fraction V, Sigma Chemical Co., St. Louis, Mo., USA) in PBS (Gibco, Paisley, Scotland, UK) and centrifuged (Centrifuge 5810 R, Eppendorf AG, Hamburg, Germany) at 200 rpm for 5 minutes. The washing/centrifugation was repeated twice. Thereafter the cell pellets were counted for radioactivity. The results (each the mean of a duplicate) are set out in Table 3 below.

[2] = test system: adult dogs; details: cited from earlier work; for % of baseline at nadir (neutrophils) / Days to nadir (neutrophils): dogs
[3] = 13 kBq/kg single intravenous injection
[4] = 40 kBq/kg single intravenous injection
[5] = 120 kBq/kg single intravenous injection
[6] = 350 kBq/kg single intravenous injection

^227Th-labeled rituximab
Thorium-227 atoms bound per cell, Net specific bound ([1]; RIC conc. 1.3 μg/ml added): 1.7
Thorium-227 atoms bound per cell, Unblocked ([1]; RIC conc. 1.3 μg/ml added): 1.9
Mean cpm bound per cell pellet, Unblocked ([1]; RIC conc. 1.3 μg/ml added): 226 cpm
Mean cpm bound per cell pellet, Blocked ([1]; RIC conc. 1.3 μg/ml added): 25 cpm
Thorium-227 atoms bound per cell, Blocked ([1]; RIC conc. 1.3 μg/ml added): 0.2
Thorium-227 atoms bound per cell, Net specific bound ([1]; RIC conc. 5.3 μg/ml added): 9.3
Thorium-227 atoms bound per cell, Unblocked ([1]; RIC conc. 5.3 μg/ml added): 10.1
Mean cpm bound per cell pellet, Unblocked ([1]; RIC conc. 5.3 μg/ml added): 1186 cpm
Mean cpm bound per cell pellet, Blocked ([1]; RIC conc. 5.3 μg/ml added): 97 cpm
Thorium-227 atoms bound per cell, Blocked ([1]; RIC conc. 5.3 μg/ml added): 0.8
Thorium-227 atoms bound per cell, Net specific bound ([1]; RIC conc. 26.0 μg/ml added): 32.5
Thorium-227 atoms bound per cell, Unblocked ([1]; RIC conc. 26.0 μg/ml added): 35.2
Mean cpm bound per cell pellet, Unblocked ([1]; RIC conc. 26.0 μg/ml added): 4141 cpm
Mean cpm bound per cell pellet, Blocked ([1]; RIC conc. 26.0 μg/ml added): 315 cpm
Thorium-227 atoms bound per cell, Blocked ([1]; RIC conc. 26.0 μg/ml added): 2.7
RIC bound to the unblocked vs. the blocked cells ([1]; on average over the three concentrations): about 12 times
Specific binding to the DAUDI cells ([1]; unblocked vs. blocked cells): did bind specifically

[224Ra] [^224Ra, radium-224]
Death caused by haematological dyscrasia resulting from bone marrow destruction, number of dogs ([2]; 350 kBq/kg): 3 dogs out of 8
% of baseline at nadir (neutrophils) [2, 3]: 60%
Days to nadir (neutrophils) [2, 3]: 30 days
% of baseline at nadir (neutrophils) [2, 4]: 70%
Days to nadir (neutrophils) [2, 4]: 10 days
% of baseline at nadir (neutrophils) [2, 5]: 20%
Days to nadir (neutrophils) [2, 5]: 10 days
% of baseline at nadir (neutrophils) [2, 6]: 4%
Days to nadir (neutrophils) [2, 6]: 10 days
